The target of data set [1] is Cholinesterase (Homo sapiens, UniProt P06276). Description: Inhibition of human BChE by Ellman's method. For orientation: In Ellman's method for cholinesterases, released thiocholine reacts with DTNB.
Data set [2] concerns SK-N-BE(2). Description: Cytotoxicity against human SK-N-BE(2) cells upto 100 uM incubated for 3 hrs by MTT assay. It is filed as toxicity, cell-based.
Data set [3] relates to HepG2. Put plainly: Cytotoxicity against human HepG2 cells upto 100 uM incubated for 3 hrs by MTT assay. To be noted: hepg2, 3 h.
Data set [4] can be described thus: Antioxidant activity assessed as ABTS radical scavenging activity measured after 6 mins by absorbance based assay. The data set is classed as functional.
For data set [5], the target named is Acetylcholinesterase (Homo sapiens, UniProt P22303). Put plainly: Inhibition of human erythrocyte AChE using acetylthiocholine iodide as substrate preincubated for 10 mins followed by substrate addition measured after 15 mins by Ellman's method.
Acetylcholinesterase, sequence (P22303 whole entry): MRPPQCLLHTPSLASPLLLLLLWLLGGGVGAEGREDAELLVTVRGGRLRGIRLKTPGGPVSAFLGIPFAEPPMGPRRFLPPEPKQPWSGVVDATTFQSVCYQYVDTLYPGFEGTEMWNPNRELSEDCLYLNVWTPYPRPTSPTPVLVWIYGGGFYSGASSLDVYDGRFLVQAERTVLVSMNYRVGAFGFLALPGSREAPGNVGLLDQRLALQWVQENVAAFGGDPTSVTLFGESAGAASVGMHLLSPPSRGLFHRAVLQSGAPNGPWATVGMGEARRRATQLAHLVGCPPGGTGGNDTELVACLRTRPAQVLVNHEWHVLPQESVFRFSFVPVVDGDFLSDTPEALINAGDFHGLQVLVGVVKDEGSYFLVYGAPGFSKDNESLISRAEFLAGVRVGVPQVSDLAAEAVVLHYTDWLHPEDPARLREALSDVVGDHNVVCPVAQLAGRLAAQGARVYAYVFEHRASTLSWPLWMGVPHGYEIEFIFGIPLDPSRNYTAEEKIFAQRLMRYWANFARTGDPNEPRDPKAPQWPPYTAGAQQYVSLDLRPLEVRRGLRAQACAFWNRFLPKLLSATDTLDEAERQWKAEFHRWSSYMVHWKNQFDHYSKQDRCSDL
The nature of data set [6]: Solubility of compound. The data set is classed as physicochemical.
In data set [7] the test system is SK-N-BE(2). Put plainly: Inhibition of t-BHP-induced ROS production in human SK-N-BE(2) cells at 100 uM incubated for 3 hrs by DCFH-DA probe based analysis. It is filed as functional, cell-based.
Data set [8] can be described thus: Antioxidant activity assessed as trolox equivalent of ORAC radical scavenging activity incubated for 15 mins by fluorescence based assay. It is filed as functional.
Data set [9] can be described thus: Antioxidant activity assessed as DPPH radical scavenging activity incubated for 2 hrs under dark condition by absorbance based assay. It is filed as functional.

Activity calls are given as the source filed them. No cut-off for these calls is given here.

Cholinesterase, sequence (P06276 whole entry): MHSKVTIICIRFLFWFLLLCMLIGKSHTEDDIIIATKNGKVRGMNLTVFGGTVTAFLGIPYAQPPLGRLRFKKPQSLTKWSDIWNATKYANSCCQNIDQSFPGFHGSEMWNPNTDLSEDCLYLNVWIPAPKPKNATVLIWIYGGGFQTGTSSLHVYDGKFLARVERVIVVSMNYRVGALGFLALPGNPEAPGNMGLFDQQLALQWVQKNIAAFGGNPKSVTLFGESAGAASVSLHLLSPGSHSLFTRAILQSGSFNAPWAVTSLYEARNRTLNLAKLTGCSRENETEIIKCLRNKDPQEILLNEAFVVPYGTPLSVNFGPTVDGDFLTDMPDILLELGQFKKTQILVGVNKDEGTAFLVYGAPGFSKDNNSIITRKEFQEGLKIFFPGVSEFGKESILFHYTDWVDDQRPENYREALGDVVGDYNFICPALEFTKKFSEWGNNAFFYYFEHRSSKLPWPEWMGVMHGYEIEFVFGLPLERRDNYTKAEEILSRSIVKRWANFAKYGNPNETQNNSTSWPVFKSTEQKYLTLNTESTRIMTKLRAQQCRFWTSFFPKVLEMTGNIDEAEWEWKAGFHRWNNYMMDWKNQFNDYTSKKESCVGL

As to `COc1cc2c(cc1OC(=O)CCCCC1CCSS1)C(=O)C(CC1CCN(Cc3ccccc3)CC1)C2` (stereo unspecified), the values for the IC50 in data set [1] and in [5] were 3.99 µM and 0.0278 µM, respectively. The Activity entry in data set [2] is “Non-toxic”; in data set [3] it was “Non-toxic”; in data set [8], < 0.5. Moreover, the EC50 in data set [4] and in data set [9] was > 400 µM throughout. In [6], the solubility result is listed as “Insoluble”. For the same molecule, the “ROS inhibition activity (qualitative)” value in [7] is “inactive”.
With `COc1cc2c(cc1O)C(=O)C(CC1CCN(Cc3ccccc3)CC1)C2` (stereo unspecified), the IC50 (commonly the concentration needed to halve the response being measured) amounted to 34.5 µM in data set [1] and 0.872 µM in [5]. Further, the Activity result in data set [2] is “Non-toxic”; in [3], “Non-toxic”; in data set [8], 9.4. Further, the figures for the EC50 in data set [4] and in [9] were 152 µM and > 400 µM, respectively. Also, the “ROS inhibition activity (qualitative)” value in [7] is “inactive”.
In the case of `COc1cc2c(cc1OC)C(=O)C(CC1CCN(Cc3ccccc3)CC1)C2` (stereo unspecified) [DONEPEZIL], the Activity result in data set [2] is “Non-toxic”; in data set [3], “Non-toxic”; in data set [8], < 0.5. Further, the EC50 in [4] and in [9] was > 1000 µM each time. Moreover, in data set [7], the “ROS inhibition activity (qualitative)” value was “inactive”.
Turning to `O=C(O)CCCC[C@@H]1CCSS1` [THIOCTIC ACID], the Activity result in data set [2] and in data set [3] was “Non-toxic” throughout. The “ROS inhibition activity (qualitative)” value in data set [7] is “Active”.
Regarding `COc1cc2c(cc1OCCCCCC1CCSS1)CC(CC1CCN(Cc3ccccc3)CC1)C2=O` (stereo unspecified), the IC50 is 3.26 µM in [1] and 0.00912 µM in data set [5]. Besides, the Activity result is “Non-toxic” in data set [2], “Non-toxic” in data set [3] and < 0.5 in [8]. Moreover, the EC50 in data set [4] and in [9] was > 400 µM in each case. In addition, the solubility entry in [6] was “Insoluble”. Also, the “ROS inhibition activity (qualitative)” value in data set [7] is recorded as “Active; More Pronounced Effect Than Lipoic Acid”.
As for `COc1cc2c(cc1OCCCCCC1CCSS1)C(=O)C(CC1CCN(Cc3ccccc3)CC1)C2` (stereo unspecified), the IC50 in data set [1] was 1.48 µM; in data set [5], 0.00763 µM. Moreover, the Activity result in data set [2] was “Non-toxic”; in data set [3], “Non-toxic”; in data set [8] it was < 0.5. Besides, the EC50 in data set [4] and in [9] was > 400 µM throughout. In [7], the “ROS inhibition activity (qualitative)” value is “Active; More Pronounced Effect Than Lipoic Acid”.
With `O=c1c(O)c(-c2ccc(O)c(O)c2)oc2cc(O)cc(O)c12` [QUERCETIN], the results for the EC50 in data set [4] and in data set [9] were 3.4 µM and 13.8 µM, respectively. Further, in data set [8], the Activity amounted to 4.
Turning to `Cc1c(C)c2c(c(C)c1O)CC[C@@](C)(CCC[C@H](C)CCC[C@H](C)CCCC(C)C)O2` [ALPHA-TOCOPHEROL], the values for the Activity result in [2], in data set [3] and in [8] were “Non-toxic”, “Non-toxic” and 1, respectively. Moreover, the values for the EC50 in data set [4] and in [9] were 15.5 µM and 27.5 µM, respectively. Also, the “ROS inhibition activity (qualitative)” value in data set [7] was “Active”.
For the molecule `O=C1c2cc(O)c(O)cc2CC1CC1CCN(Cc2ccccc2)CC1` (stereo unspecified), the IC50 was found to be 246 µM in data set [1] and 1.81 µM in data set [5]. The Activity entry in data set [2] is “Non-toxic”; in [3], “Non-toxic”; in [8], 2.2. Moreover, the EC50 (commonly the concentration giving half of the maximal effect) in data set [4] is 12.3 µM; in data set [9], 29.5 µM. In [6], the solubility result is on record as “soluble”. Further, the “ROS inhibition activity (qualitative)” value in [7] is on record as “Active; Activity Comparable To Vitamin E”.
Take `COc1cc2c(cc1O)CC(CC1CCN(Cc3ccccc3)CC1)C2=O` (stereo unspecified): the figures for the IC50 in [1] and in [5] were 35.8 µM and 0.773 µM, respectively. Also, the EC50 in data set [4] was 8.5 µM; in data set [9], 32.5 µM. Moreover, the Activity in [8] amounted to 2.1.

The record behind these values is ChEMBL document CHEMBL6092143, “Synthesis and evaluation of lipoic acid - donepezil hybrids for Alzheimer's disease using a straightforward strategy” (Bioorg Med Chem Lett, 2024).
